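96-well plates; 48 h exposure; 5 concentrations. Endpoints by linear interpolation between flanking doses. Not reached: highest tested concentration assigned. Here, GI50 denotes the concentration required for 50% inhibition of growth. TGI denotes the concentration required for complete inhibition of growth.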
Tests used:
Test in all cases: NCI anticancer screen, dose series, 48 h
[1] = system: NCI-H460 lung
[2] = system: K-562 leukemia
[3] = system: EKVX NSCLC
[4] = system: MALME-3M melanoma
[5] = system: UACC-62 melanoma
[6] = system: SNB-19 CNS
[7] = system: NCI-H226 lung
[8] = system: M14 melanoma
[9] = system: A498 renal
[10] = system: PC-3 prostate

CC12CC3CC(C1)CC(N=[N+]=[N-])(C3)C2
TGI [1]: > 100 µM | TGI [2]: > 100 µM | TGI [3]: > 100 µM | TGI [4]: > 100 µM | TGI [5]: > 100 µM | TGI [6]: > 100 µM | TGI [7]: > 100 µM | TGI [8]: > 100 µM | TGI [9]: > 100 µM

CC(=O)c1c[nH]cc1CO
TGI [1]: > 10 µM | TGI [2]: > 10 µM | TGI [4]: > 10 µM | TGI [10]: > 10 µM | TGI [6]: > 10 µM | TGI [7]: > 10 µM | TGI [8]: > 10 µM | TGI [9]: > 10 µM

NC(CCSC(F)F)C(=O)O (configuration not stated)
TGI [1]: > 100 µM | TGI [2]: > 100 µM | TGI [3]: > 100 µM | TGI [4]: > 100 µM | TGI [5]: > 100 µM | TGI [6]: > 100 µM | TGI [7]: > 100 µM | TGI [8]: > 100 µM

COc1cc([N+](=O)[O-])c(OC)cc1-c1nc2sc(Cl)cn2c1/C=N/NC(=N)N/N=C/c1c(-c2cc(OC)c([N+](=O)[O-])cc2OC)nc2sc(Cl)cn12
GI50 [1]: 2.57 µM | TGI [1]: 7.13 µM | GI50 [4]: 1.61 µM | TGI [4]: 3.28 µM | GI50 [10]: 1.97 µM | TGI [10]: 3.47 µM | GI50 [8]: 1.91 µM | TGI [8]: 3.36 µM | GI50 [9]: 1.7 µM | TGI [9]: 3.13 µM

O=C1C(=O)c2ccccc2C(O)=C1CCCCCCCCC1CCCCC1
TGI [1]: 15.9 µM | TGI [2]: 12.1 µM | TGI [4]: 10.2 µM | TGI [5]: 18.4 µM | TGI [10]: 19.5 µM | TGI [6]: 25.1 µM | TGI [8]: 26.2 µM

N#CN1CCC=C(c2cc3ccccc3[nH]2)C1
TGI [1]: > 448 µM | TGI [2]: > 448 µM | TGI [3]: > 448 µM | TGI [4]: > 448 µM | TGI [5]: > 448 µM | TGI [6]: > 448 µM | TGI [7]: > 448 µM

CN1CCn2c(c(Sc3ccc(C(=O)NO)cc3)c3ccccc32)C1=O
GI50 [1]: 2.19 µM | TGI [1]: 6.58 µM | GI50 [2]: 3.77 µM | TGI [2]: > 100 µM | GI50 [5]: 1.44 µM | TGI [5]: 3.24 µM | GI50 [10]: 1.96 µM | TGI [10]: 4.57 µM | GI50 [6]: 2.34 µM | TGI [6]: 9.99 µM | GI50 [7]: 1.78 µM | TGI [7]: 3.9 µM | GI50 [8]: 1.77 µM | TGI [8]: 3.99 µM | GI50 [9]: 0.151 µM | TGI [9]: 1.8 µM

COc1cc(/C=C2/C(=O)NC(Cc3cc(OC)c(OC)c(C)c3OC)C(=O)N2Cc2ccccc2)c(OC)c(C)c1OC (configuration not stated)
TGI [1]: > 100 µM | TGI [2]: > 100 µM | TGI [3]: > 100 µM | TGI [4]: > 100 µM | TGI [5]: > 100 µM | TGI [6]: > 100 µM | TGI [7]: > 100 µM | TGI [8]: > 100 µM | TGI [9]: > 100 µM

COC1=CC(=O)[C@]2(C)[C@H](C1=O)C(C)[C@H]2c1ccccc1 (some centres not stated)
TGI [1]: > 100 µM | TGI [2]: > 100 µM | TGI [3]: > 100 µM | TGI [4]: > 100 µM | TGI [5]: > 100 µM | TGI [6]: > 100 µM | TGI [7]: > 100 µM | TGI [8]: > 100 µM | TGI [9]: > 100 µM

CCOc1ccccc1NC(=O)C1=C(C)NC(C)=C(C(=O)Nc2ccccc2OCC)C1c1ccc(NC(C)=O)cc1
TGI [1]: > 100 µM | TGI [2]: > 100 µM | TGI [3]: > 100 µM | TGI [4]: > 100 µM | TGI [6]: > 100 µM | TGI [7]: > 100 µM | TGI [8]: > 100 µM | TGI [9]: 88.9 µM

[C-]#[N+]C(C)(C)C[C@H]1CC(C)C2CCC(C)C3([N+]#[C-])CCC(=C)C1[C@H]23 (some centres not stated)
TGI [2]: > 50 µM | TGI [3]: 35.8 µM | TGI [4]: 25.3 µM | TGI [5]: 11.5 µM | TGI [6]: 17.5 µM | TGI [7]: 10.7 µM | TGI [8]: 9.93 µM | TGI [9]: 23.9 µM

CS/C(c1ccccc1)=[N+](/C)[O-]
TGI [1]: 99.4 µM | TGI [2]: > 100 µM | TGI [3]: > 100 µM | TGI [4]: > 100 µM | TGI [5]: > 100 µM | TGI [6]: > 100 µM | TGI [8]: > 100 µM | TGI [9]: > 100 µM

O=C1c2c(nc3ccccc3c2-c2ccccc2)CN1Nc1ccccc1
TGI [2]: > 100 µM | TGI [3]: > 100 µM | TGI [4]: > 100 µM | TGI [5]: > 100 µM | TGI [7]: > 100 µM | TGI [8]: > 100 µM

Cc1ccc(N2C(=O)/C(=C/c3ccc(N(CCC#N)CCC#N)cc3C)N=C2c2cc([N+](=O)[O-])ccc2Cl)cc1
TGI [1]: > 100 µM | TGI [2]: > 100 µM | TGI [4]: > 100 µM | TGI [5]: > 100 µM | TGI [6]: > 100 µM | TGI [7]: > 100 µM | TGI [8]: > 100 µM | TGI [9]: > 100 µM

O=C1C[C@@H]2CCCC[C@@H]2C12SCCS2
TGI [1]: > 100 µM | TGI [2]: > 100 µM | TGI [3]: > 100 µM | TGI [4]: > 100 µM | TGI [5]: > 100 µM | TGI [6]: > 100 µM | TGI [9]: > 100 µM

CSC1C(=O)c2ccccc2/C(=N/Nc2nc3ccccc3s2)C1C (configuration not stated)
GI50 [1]: 11 µM | TGI [1]: 25.7 µM | GI50 [2]: 1.7 µM | TGI [2]: 4.55 µM | GI50 [3]: 8.44 µM | TGI [3]: 18.4 µM | GI50 [5]: 8.67 µM | TGI [5]: 16.5 µM | GI50 [10]: 9.28 µM | TGI [10]: 27.2 µM | GI50 [6]: 19.9 µM | TGI [6]: > 50 µM | GI50 [8]: 14.6 µM | TGI [8]: 33.1 µM

N#C[S-].[Au+].c1ccc(CN2[CH-]N(Cc3ccccc3)C(c3ccccc3)=C2c2ccccc2)cc1
GI50 [4]: 0.284 µM | TGI [4]: 1.15 µM | GI50 [9]: 0.251 µM | TGI [9]: 0.822 µM

Clc1ccc2c(c1)-c1ccccc1C1=NCCN12
GI50 [1]: 1.49 µM | TGI [1]: 4.51 µM | GI50 [2]: 2.2 µM | TGI [2]: 7.61 µM | GI50 [3]: 2.25 µM | TGI [3]: 9.09 µM | GI50 [4]: 1.77 µM | TGI [4]: 4.17 µM | GI50 [5]: 1.6 µM | TGI [5]: 3.48 µM | GI50 [10]: 2.03 µM | TGI [10]: 6.83 µM | GI50 [6]: 2.5 µM | TGI [6]: 9.32 µM | GI50 [7]: 1.45 µM | TGI [7]: 3.53 µM | GI50 [8]: 1.56 µM | TGI [8]: 3.07 µM

Cc1ccc(C2=C(c3ccccc3)C(Br)(c3ccccc3)C(c3ccccc3)=C2c2ccc(C)cc2)cc1
TGI [1]: > 100 µM | TGI [2]: > 100 µM | TGI [3]: > 100 µM | TGI [4]: > 100 µM | TGI [5]: > 100 µM | TGI [6]: > 100 µM | TGI [7]: > 100 µM | TGI [8]: > 100 µM | TGI [9]: > 100 µM

COc1ccccc1/C=N/N=C(\N)NO
TGI [1]: > 100 µM | TGI [2]: > 100 µM | TGI [3]: > 100 µM | TGI [4]: > 100 µM | TGI [5]: 33.7 µM | TGI [6]: > 100 µM | TGI [7]: 90.7 µM | TGI [9]: > 100 µM

Cc1cccc2c1C/C(=C1\CCc3c(C)cccc31)C2=O
TGI [1]: > 100 µM | TGI [2]: > 100 µM | TGI [3]: > 100 µM | TGI [4]: > 100 µM | TGI [5]: > 100 µM | TGI [6]: > 100 µM | TGI [7]: > 100 µM | TGI [8]: > 100 µM | TGI [9]: > 100 µM

Cc1cc(=O)oc2cc(OCc3nc4ccccc4c(=O)[nH]3)ccc12
TGI [1]: > 100 µM | TGI [2]: > 100 µM | TGI [3]: > 100 µM | TGI [4]: > 100 µM | TGI [5]: > 100 µM | TGI [6]: > 100 µM | TGI [7]: > 100 µM | TGI [8]: > 100 µM | TGI [9]: > 100 µM

c1ccc(SC(CCCCOC2CCCCO2)Sc2ccccc2)cc1 (configuration not stated)
TGI [1]: > 100 µM | TGI [2]: > 100 µM | TGI [3]: > 100 µM | TGI [4]: > 100 µM | TGI [5]: > 100 µM | TGI [6]: > 100 µM | TGI [8]: > 100 µM | TGI [9]: > 100 µM

Reference: PubChem BioAssay (NCI)
